The target in experiment [1] is T1, COX-1 derived from ram seminal vesicles (Ovis aries, UniProt P05979).
T1 sequence (P05979 25-600): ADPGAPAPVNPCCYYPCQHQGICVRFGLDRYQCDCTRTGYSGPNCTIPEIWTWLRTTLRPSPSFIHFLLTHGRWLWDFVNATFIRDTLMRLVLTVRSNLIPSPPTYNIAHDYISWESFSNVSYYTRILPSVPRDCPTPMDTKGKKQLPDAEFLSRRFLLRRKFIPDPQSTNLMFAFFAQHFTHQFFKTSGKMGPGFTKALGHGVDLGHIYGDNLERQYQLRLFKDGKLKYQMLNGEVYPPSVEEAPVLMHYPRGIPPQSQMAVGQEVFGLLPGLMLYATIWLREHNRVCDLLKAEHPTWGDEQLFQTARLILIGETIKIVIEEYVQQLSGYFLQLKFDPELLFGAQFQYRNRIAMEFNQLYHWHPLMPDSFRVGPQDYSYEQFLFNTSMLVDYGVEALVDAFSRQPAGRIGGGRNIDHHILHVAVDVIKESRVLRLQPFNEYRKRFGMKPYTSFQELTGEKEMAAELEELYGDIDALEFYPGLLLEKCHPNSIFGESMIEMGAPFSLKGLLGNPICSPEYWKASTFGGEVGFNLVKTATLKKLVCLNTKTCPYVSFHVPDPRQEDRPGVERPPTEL
Description: Inhibition of COX-1 (arachidonic acid incubation, PGE2 formation). The note with it: 300 μM; PGE2 formation by spectrophotometric quantitation of malondialdehyde.
Description: (§1) The inhibition of COX-1 was measured by incubating arachidonic acid with COX-1 derived from ram seminal vesicles. The inhibition of COX-2 was measured by incubation of arachidonic acid with COX-2 derived from sheep placenta. […] In each assay, the formation of prostaglandin E2 (PGE2) was measured by spectrophotometric quantitation of malondialdehyde.

Experiment [2] has as its target T2, COX-2 derived from sheep placenta (Ovis aries, UniProt P79208).
T2 sequence (P79208 17-603): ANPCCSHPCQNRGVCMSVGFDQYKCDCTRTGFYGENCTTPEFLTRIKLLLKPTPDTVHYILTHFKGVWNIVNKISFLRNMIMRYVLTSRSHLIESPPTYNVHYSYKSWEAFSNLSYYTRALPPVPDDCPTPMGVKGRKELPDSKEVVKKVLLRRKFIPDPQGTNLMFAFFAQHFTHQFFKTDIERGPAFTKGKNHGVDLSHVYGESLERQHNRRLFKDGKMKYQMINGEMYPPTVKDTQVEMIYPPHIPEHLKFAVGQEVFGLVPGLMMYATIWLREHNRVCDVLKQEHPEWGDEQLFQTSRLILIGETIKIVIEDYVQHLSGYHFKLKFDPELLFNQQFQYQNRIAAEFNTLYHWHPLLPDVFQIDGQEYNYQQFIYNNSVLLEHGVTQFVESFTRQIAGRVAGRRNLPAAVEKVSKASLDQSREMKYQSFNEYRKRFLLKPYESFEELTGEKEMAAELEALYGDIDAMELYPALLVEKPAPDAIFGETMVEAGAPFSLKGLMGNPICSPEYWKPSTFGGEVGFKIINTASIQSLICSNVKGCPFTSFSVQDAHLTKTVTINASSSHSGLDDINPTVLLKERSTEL
Description: Inhibition of COX-2 (arachidonic acid incubation, PGE2 formation). The conditions noted are these: 300 μM; PGE2 formation by spectrophotometric quantitation of malondialdehyde.
Description: as §1

Experiment [3] has as its system adjuvant-induced footpad edema in rats. As to the kind of experiment: Adjuvant assay (adjuvant-induced footpad edema). Type of experiment: in vivo, rat. The note with it: Male Lewis rats, 3 mg/kg po, dosing day 14 to day 21 post-adjuvant. As for the experimental part: See, for example, […], “Rat Adjuvant Arthritis A Model of Chronic Inflammation,” Pharmocoloigal Methods in the Control of Inflammation, 363-380 (1989) and references cited therein In this assay, Male Lewis rats weighing between 180-220 g were lightly anesthetized with an ip injection of 30 mg/kg of sodium pentobarbital (50 mg/mL). Desiccated Mycobacterium butyrium (Difco, 20 mg/mL) suspended in mineral oil was injected (50 μL) at both sides of the base of the tail under the skin A line was tattooed on both rear paws at 5 mm above the angle of the ankle The paw volumes, under the line, were measured by volume displacement using a plethysmometer (Ugo Basile) at the day of adjuvant injection (day 0) and on day 14 On day 14, animals with paw volumes equal to the mean of paw volumes ±SD were randomized into treatment groups. Rats which fell outside ±1 SD were not used in the experiment.

The text below walks through data of patent US6730700B2, “3,4,5,-trisubstituted aryl nitrone compounds and pharmaceutical compositions containing the same” (Renovis, Inc., priority 1998, dated 2004).

With `CC(=O)Oc1c(C(C)(C)C)cc(/C=[N+](\[O-])C(C)(C)C)cc1C(C)(C)C` [Example 1, α-(4-Acetoxy-3,5-di-tert-butylphenyl)-N-tert-butylnitrone], in experiment [1], the “inhibition of COX-1” value is “did not significantly affect”. In addition, the “inhibition of COX-2” value in experiment [2] is “did not significantly affect”.

For `COc1ccc2c(c1)c(CC(=O)O)c(C)n2C(=O)c1ccc(Cl)cc1` [indomethacin], the “paw volume as compared to vehicle controls” value in experiment [3] is recorded as “significantly reduced”.
